What all share (assay): Transcription accelerating activity through RARs (PLAP reporter in COS-1 cells)
Holding throughout (assay type): cell-based
Holding throughout (settings): relative to ED30 of all-trans retinoic acid = 1, ED30 = concentration giving 30% of activity induced by 1 μM all-trans retinoic acid

The target in one test is T1, RAR-β (Homo sapiens, UniProt P10826).
T1 construct: expressed in transfected cells; host or cells: COS-1 (African green monkey kidney cells), transient lipofection
T1 sequence (P10826 1-455): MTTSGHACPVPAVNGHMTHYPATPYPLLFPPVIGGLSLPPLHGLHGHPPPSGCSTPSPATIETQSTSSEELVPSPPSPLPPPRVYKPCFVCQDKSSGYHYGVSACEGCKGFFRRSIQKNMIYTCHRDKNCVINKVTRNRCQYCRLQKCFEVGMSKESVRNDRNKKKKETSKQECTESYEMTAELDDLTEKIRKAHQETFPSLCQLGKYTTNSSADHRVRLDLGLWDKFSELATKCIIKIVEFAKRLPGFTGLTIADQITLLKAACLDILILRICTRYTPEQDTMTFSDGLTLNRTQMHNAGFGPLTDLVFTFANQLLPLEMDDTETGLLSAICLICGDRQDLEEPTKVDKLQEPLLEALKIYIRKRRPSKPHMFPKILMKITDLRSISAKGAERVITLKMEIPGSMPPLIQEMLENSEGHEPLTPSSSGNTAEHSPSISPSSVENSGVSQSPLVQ
An excerpt:
(§1) Measurement of the Activities of Accelerating Trans-cription Through RARs
(§2) Human RAR Expression Vectors and secretory alkaline phosphatase (PLAP) gene vectors (PLAP vectors) containing in a state integrated into the upstream a competent sequence whose expression is […] through binding with RAR depending on a ligand were temporarily transferred into COS-1 (African green monkey kidney cells), and the PLAP which had been produced depending on a ligand and secreted into a culture medium was analyzed by the chemiluminescence method to determine the transcription-accelerating activity of each compound. Further, the selectivity of each compound among RARs was determined by comparing the transcription accelerating activities of the compound for the receptors with each other.
(§3) On a 60-mm culture dish were scattered 2.5×10^4 COS-1 cells. Four days after, human RAR α, β and γ expression vectors and PLAP vectors were transferred into the cells each in an amount of 4 μg by the lipofection method. Another day after, the resulting cells were recovered, and put on a 96-well culture plate in an amount of 2×10^4 per unit well. Four hours after, the cells were put on a medium containing charcoal-treated fetal bovine serum, followed by the addition of a dilution of all-trans retinoic acid or a test compound. After the lapse of 36 hours, the supernatant was recovered and the resulting samples were treated at 65° C. for 10 minutes to eliminate the non-specific activity. 15 μl of each sample was mixed with 60 μl of a 28 mM sodium carbonate buffer(pH10), followed by the addition of 75 μl of Smilight (trade name, a product of Sumitomo Metal Industries, Ltd., substrate for chemiluminescence). The resulting mixture was reacted at 37° C. for 30 minutes and the intensity of luminescence was determined. The compounds which will be described below induced the transcription activities of RARs dependently on the concentration.

Another test addresses T2, RAR-γ (Homo sapiens, UniProt P13631).
T2 construct: expressed in transfected cells; host or cells: COS-1 (African green monkey kidney cells), transient lipofection
T2 sequence (P13631 1-454): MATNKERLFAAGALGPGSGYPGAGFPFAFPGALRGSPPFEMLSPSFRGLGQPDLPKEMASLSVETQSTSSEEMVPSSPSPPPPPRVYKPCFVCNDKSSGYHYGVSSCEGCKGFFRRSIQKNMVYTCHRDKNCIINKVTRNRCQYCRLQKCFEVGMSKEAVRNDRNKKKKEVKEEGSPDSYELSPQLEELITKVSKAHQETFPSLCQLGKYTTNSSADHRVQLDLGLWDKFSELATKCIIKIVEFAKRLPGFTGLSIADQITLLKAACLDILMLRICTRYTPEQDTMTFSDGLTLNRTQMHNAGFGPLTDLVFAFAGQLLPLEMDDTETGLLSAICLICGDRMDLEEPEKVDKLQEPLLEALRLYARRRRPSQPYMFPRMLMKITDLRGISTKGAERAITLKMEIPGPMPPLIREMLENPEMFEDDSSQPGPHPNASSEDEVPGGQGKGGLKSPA
Excerpt: as §1, §2, §3

Another test addresses T3, RAR-α (Homo sapiens, UniProt P10276).
T3 construct: expressed in transfected cells; host or cells: COS-1 (African green monkey kidney cells), transient lipofection
T3 sequence (P10276 1-462): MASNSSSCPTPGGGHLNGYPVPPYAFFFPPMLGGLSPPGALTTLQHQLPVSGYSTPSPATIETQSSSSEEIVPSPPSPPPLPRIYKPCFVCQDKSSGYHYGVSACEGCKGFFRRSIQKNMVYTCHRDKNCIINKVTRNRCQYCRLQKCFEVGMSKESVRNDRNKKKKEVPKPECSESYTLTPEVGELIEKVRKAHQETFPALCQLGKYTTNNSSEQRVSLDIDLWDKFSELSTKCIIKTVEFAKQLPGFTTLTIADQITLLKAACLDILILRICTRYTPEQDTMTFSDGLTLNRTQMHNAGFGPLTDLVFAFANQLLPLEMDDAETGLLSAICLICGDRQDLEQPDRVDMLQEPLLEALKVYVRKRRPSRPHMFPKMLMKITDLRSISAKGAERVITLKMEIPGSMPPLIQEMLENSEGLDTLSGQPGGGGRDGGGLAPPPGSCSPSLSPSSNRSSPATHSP
Excerpt: as §1, §2, §3

As to `COc1ccc2ccc(-c3ccc(-c4ccc(C(=O)O)cc4)[nH]3)cc2c1C` [Example 4, 4-{2-[5-(7-Methoxy-8-methylnaphthalen-2-yl)pyrrolyl]}benzoic acid], the “Transcription accelerating activity Relative ED30 RAR-β” value at RAR-β was “— (—; >4000)”. The “Transcription accelerating activity Relative ED30 RAR-γ” value on RAR-γ is “— (—; >4000)”. Besides, at RAR-α, the “Transcription accelerating activity Relative ED30 RAR-α” value came to 49.
On to `Cc1cccc2ccc(-c3ccc(-c4ccc(C(=O)O)cc4)[nH]3)cc12` [Example 6, 4-{2-[5-(8-Methylnaphthalen-2-yl)pyrrolyl]}benzoic acid], for which the “Transcription accelerating activity Relative ED30 RAR-β” value at RAR-β was found to be 110. The “Transcription accelerating activity Relative ED30 RAR-γ” value at RAR-γ came to 240. Also, the “Transcription accelerating activity Relative ED30 RAR-α” value on RAR-α stood at 0.9.
Regarding `CCc1cccc2ccc(-c3ccc(-c4ccc(C(=O)O)cc4)[nH]3)cc12` [Example 7, 4-{2-[5-(8-Ethylnaphthalen-2-yl)pyrrolyl]}benzoic acid], the “Transcription accelerating activity Relative ED30 RAR-β” value at RAR-β turned out to be 36. Moreover, at RAR-γ, the “Transcription accelerating activity Relative ED30 RAR-γ” value was 190. The “Transcription accelerating activity Relative ED30 RAR-α” value on RAR-α amounted to 0.9.
The like results for `Cc1ccc(C)c2oc(-c3ccc(-c4ccc(C(=O)O)cc4)[nH]3)cc12` [Example 13, 4-{2-[5-(4,7-Dimethylbenzofuran-2-yl)pyrrolyl]}benzoic acid] were, in that order, 13, 48 and 0.4.
For `O=C(O)c1ccc(-c2ccc(-c3cc4c(Cl)ccc(Cl)c4o3)[nH]2)cc1` [Example 14, 4-{2-[5-(4,7-Dichlorobenzofuran-2-yl)pyrrolyl]}benzoic acid] the same measures were 160, 1400 and 1.0.
Regarding `O=C(O)c1ccc(-c2ccc(-c3cc4cccc(Cl)c4o3)[nH]2)cc1` [Example 15, 4-{2-[5-(7-Chlorobenzofuran-2-yl)pyrrolyl]}benzoic acid], the “Transcription accelerating activity Relative ED30 RAR-β” value on RAR-β is 940. On RAR-γ, the “Transcription accelerating activity Relative ED30 RAR-γ” value is recorded as 2100. Besides, the “Transcription accelerating activity Relative ED30 RAR-α” value on RAR-α worked out at 3.1.
`CCCc1cccc2cc(-c3ccc(-c4ccc(C(=O)O)cc4)[nH]3)oc12` [Example 16, 4-{2-[5-(7-n-Propylbenzofuran-2-yl)pyrrolyl]}benzoic acid]: the “Transcription accelerating activity Relative ED30 RAR-β” value at RAR-β is 74. In addition, the “Transcription accelerating activity Relative ED30 RAR-γ” value at RAR-γ is 410. Also, on RAR-α, the “Transcription accelerating activity Relative ED30 RAR-α” value came to 1.0.
The like results for `CCc1ccc(C)c2cc(-c3ccc(-c4ccc(C(=O)O)cc4)[nH]3)oc12` [Example 17, 4-{2-[5-(4-Methyl-7-ethylbenzofuran-2-yl)pyrrolyl]}benzoic acid] were, in that order, 24, 120 and 0.26.
For `CCc1ccc(Cl)c2cc(-c3ccc(-c4ccc(C(=O)O)cc4)[nH]3)oc12` [Example 20, 4-{2-[5-(4-Chloro-7-ethylbenzofuran-2-yl)pyrrolyl]}benzoic acid] the same measures were 59, 300 and 0.66.
For `CCc1cc(Cl)cc2cc(-c3ccc(-c4ccc(C(=O)O)cc4)[nH]3)oc12` [Example 23, 4-{2-[5-(5-Chloro-7-ethylbenzofuran-2-yl)pyrrolyl]}benzoic acid] the same measures were 67, 330 and 0.40.
As for `CCc1cc(F)cc2cc(-c3ccc(-c4ccc(C(=O)O)cc4)[nH]3)oc12` [Example 25, 4-{2-[5-(5-Fluoro-7-ethylbenzofuran-2-yl)pyrrolyl]}benzoic acid], the “Transcription accelerating activity Relative ED30 RAR-β” value at RAR-β stood at 62. Further, the “Transcription accelerating activity Relative ED30 RAR-γ” value at RAR-γ was 63. On RAR-α, the “Transcription accelerating activity Relative ED30 RAR-α” value is given as 0.65.

The values above are taken from US6358995B1, “Carboxylic acid derivatives having fused rings” (Eisai Co., Ltd., priority 1996, dated 2002).
